Reference: US10941157B2, “Pesticidal compositions and uses thereof” (Gilead Apollo, LLC, priority 2015, dated 2021)
Converted amounts (≈) assume the structure as drawn. Where two headings read alike, the source gives them in different places.

Legend:
Assay type in all cases: cell-based
[1] = tested on: Botrtyis cinerea (Bc); experiment: In vitro pathogen growth inhibition assay, Bc; settings: 48 h
Method in brief: (§1)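 Value reported is the compound concentration reaching ≥90% growth inhibition, from OD readings at 24 and 48 h after blank subtraction, confirmed visually. Inoculum was spores diluted in 17% V8 medium, except Rs, using 1.5 mm mycelial plugs in ¼ PDB; actual compound concentration corrected via OD600.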

[2] = tested on: Collectotrichum graminicola (Cg); experiment: In vitro pathogen growth inhibition assay, Cg; settings: 48 h
Method in brief: as §1

[3] = tested on: Diplodia maydis (Dm); experiment: In vitro pathogen growth inhibition assay, Dm; settings: Stenocarpella maydis, 48 h
Method in brief: (§2)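 Spores in 17% V8 liquid medium, or 1.5 mm Rs mycelial plugs in ¼ PDB, incubated with compound; final concentration checked by OD600 for precipitation. OD readings at 24 and 48 h, blank-subtracted, plus visual ratings; value is concentration giving ≥90% growth inhibition.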

[4] = tested on: Fusarium moniliforme (Fm); experiment: In vitro pathogen growth inhibition assay, Fm; settings: Fusarium verticillioides
Method in brief: as §1

[5] = tested on: Fusarium virguliforme (Fv); experiment: In vitro pathogen growth inhibition assay, Fv
Method in brief: as §2

[6] = tested on: Phytophthora capsici (Pc); experiment: In vitro pathogen growth inhibition assay, Pc; settings: 48 h
Method in brief: as §2

[7] = tested on: Rhizoctonia solani (Rs); experiment: In vitro pathogen growth inhibition assay, Rs (mycelial plugs); settings: Rhizoctonia solani, 48 h
Method in brief: as §2

[8] = tested on: Septoria tritici (St); experiment: In vitro pathogen growth inhibition assay, St; settings: Zymoseptoria tritici, 48 h
Method in brief: as §1

[9] = ≥90% growth inhibition, 48 hours, vs 2% DMSO control, read-out: Compound Concentration (ppm) sufficient for ≥90% inhibition of Bc
[10] = ≥90% growth inhibition, 48 hours, vs 2% DMSO control, read-out: Compound Concentration (ppm) sufficient for ≥90% inhibition of Cg
[11] = ≥90% growth inhibition, 48 hours, vs 2% DMSO control, read-out: Compound Concentration (ppm) sufficient for ≥90% inhibition of Dm
[12] = ≥90% growth inhibition, 48 hours, vs 2% DMSO control, read-out: Compound Concentration (ppm) sufficient for ≥90% inhibition of Fm
[13] = ≥90% growth inhibition, 48 hours, vs 2% DMSO control, read-out: Compound Concentration (ppm) sufficient for ≥90% inhibition of Fv
[14] = ≥90% growth inhibition, 48 hours, vs 2% DMSO control, read-out: Compound Concentration (ppm) sufficient for ≥90% inhibition of Pc
[15] = ≥90% growth inhibition, mycelial plugs, 48 hours, vs 2% DMSO control, read-out: Compound Concentration (ppm) sufficient for ≥90% inhibition of Rs
[16] = ≥90% growth inhibition, 48 hours, vs 2% DMSO control, read-out: Compound Concentration (ppm) sufficient for ≥90% inhibition of St
[17] = ≥90% inhibition, 48 hours vs 2% DMSO control, read-out: Compound Concentration (ppm) sufficient for ≥90% inhibition of growth, Bc
[18] = ≥90% inhibition, 48 hours vs 2% DMSO control, read-out: Compound Concentration (ppm) sufficient for ≥90% inhibition of growth, Cg
[19] = ≥90% inhibition, 48 hours vs 2% DMSO control, read-out: Compound Concentration (ppm) sufficient for ≥90% inhibition of growth, Dm
[20] = ≥90% inhibition, 48 hours vs 2% DMSO control, read-out: Compound Concentration (ppm) sufficient for ≥90% inhibition of growth, Fm
[21] = ≥90% inhibition, 48 hours vs 2% DMSO control, read-out: Compound Concentration (ppm) sufficient for ≥90% inhibition of growth, Fv
[22] = ≥90% inhibition, 48 hours vs 2% DMSO control, read-out: Compound Concentration (ppm) sufficient for ≥90% inhibition of growth, Pc
[23] = ≥90% inhibition, mycelial plugs, 48 hours vs 2% DMSO control, read-out: Compound Concentration (ppm) sufficient for ≥90% inhibition of growth, Rs
[24] = ≥90% inhibition, 48 hours vs 2% DMSO control, read-out: Compound Concentration (ppm) sufficient for ≥90% inhibition of growth, St

IC90 [1, 9] [µg/mL]	IC90 [2, 10] [µg/mL]	IC90 [3, 11] [µg/mL]	IC90 [4, 12] [µg/mL]	IC90 [5, 13] [µg/mL]	IC90 [6, 14] [µg/mL]	IC90 [7, 15] [µg/mL]	IC90 [8, 16] [µg/mL]	IC90 [1, 17] [µg/mL]	IC90 [2, 18] [µg/mL]	IC90 [3, 19] [µg/mL]	IC90 [4, 20] [µg/mL]	IC90 [5, 21] [µg/mL]	IC90 [6, 22] [µg/mL]	IC90 [7, 23] [µg/mL]	IC90 [8, 24] [µg/mL]	SMILES	also measured
2 (≈ 3.29 µM)	2 (≈ 3.29 µM)	2 (≈ 3.29 µM)	0.08 (≈ 0.132 µM)	0.4 (≈ 0.658 µM)	> 50	10 (≈ 16.5 µM)	> 50									CCOC(=O)c1sc2c(c1C)c(=O)n(C(C)(C)C(=O)NC(C)C)c(=O)n2C[C@H](OCCOC)c1cc(F)ccc1OC [Compound I-177]	
								0.4 (≈ 0.625 µM)	10 (≈ 15.6 µM)	2 (≈ 3.13 µM)	0.08 (≈ 0.125 µM)	2 (≈ 3.13 µM)	> 50	2 (≈ 3.13 µM)	> 50	COc1ccc(F)cc1[C@H](Cn1c(=O)n(C(C)(C)C(=O)NC(C)C)c(=O)c2c(C)c(-n3cccn3)sc21)OC1CCC(=O)CC1 [Compound I-048]	
2 (≈ 3.4 µM)	2 (≈ 3.4 µM)	2 (≈ 3.4 µM)	0.4 (≈ 0.68 µM)	2 (≈ 3.4 µM)	10 (≈ 17 µM)	0.08 (≈ 0.136 µM)	> 50									COc1ccc(F)cc1[C@@](O)(CCO)Cn1c(=O)n(C(C)(C)C(=O)NC(C)C)c(=O)c2c(C)c(-n3nccn3)sc21 [Compound I-276]	
																COc1ccc(F)cc1[C@H](Cn1c(=O)n([C@@H](C)C(N)=O)c(=O)c2c(C)c(-n3nccn3)sc21)OCCC#N [Compound I-199]	IC90 ([1]; concentration sufficient to ≥90% inhibition of growth, 48 hours vs 2% DMSO control, read-out: Compound Concentration (ppm) for ≥90% inhibition, Bc): 10 µg/mL (≈ 18.5 µM); IC90 ([2]; concentration sufficient to ≥90% inhibition of growth, 48 hours vs 2% DMSO control, read-out: Compound Concentration (ppm) for ≥90% inhibition, Cg): 50 µg/mL (≈ 92.3 µM); IC90 ([3]; concentration sufficient to ≥90% inhibition of growth, 48 hours vs 2% DMSO control, read-out: Compound Concentration (ppm) for ≥90% inhibition, Dm): 50 µg/mL (≈ 92.3 µM); IC90 ([4]; concentration sufficient to ≥90% inhibition of growth, 48 hours vs 2% DMSO control, read-out: Compound Concentration (ppm) for ≥90% inhibition, Fm): 10 µg/mL (≈ 18.5 µM); IC90 ([5]; concentration sufficient to ≥90% inhibition of growth, 48 hours vs 2% DMSO control, read-out: Compound Concentration (ppm) for ≥90% inhibition, Fv): 10 µg/mL (≈ 18.5 µM); IC90 ([6]; concentration sufficient to ≥90% inhibition of growth, 48 hours vs 2% DMSO control, read-out: Compound Concentration (ppm) for ≥90% inhibition, Pc): > 50 µg/mL; IC90 ([7]; concentration sufficient to ≥90% inhibition of growth, 48 hours vs 2% DMSO control, read-out: Compound Concentration (ppm) for ≥90% inhibition, Rs): 50 µg/mL (≈ 92.3 µM); IC90 ([8]; concentration sufficient to ≥90% inhibition of growth, 48 hours vs 2% DMSO control, read-out: Compound Concentration (ppm) for ≥90% inhibition, St): > 50 µg/mL
								10 (≈ 16 µM)	50 (≈ 80 µM)	50 (≈ 80 µM)	2 (≈ 3.2 µM)	10 (≈ 16 µM)	> 50	10 (≈ 16 µM)	> 50	COc1ccccc1[C@H](Cn1c(=O)n(C(C)(C)C(=O)N2CC(O)C2)c(=O)c2c(C)c(-n3nccn3)sc21)OC1CCOCC1 [Compound I-156]	
								2 (≈ 3.52 µM)	10 (≈ 17.6 µM)	10 (≈ 17.6 µM)	0.08 (≈ 0.141 µM)	10 (≈ 17.6 µM)	> 50	10 (≈ 17.6 µM)	> 50	COc1ccccc1[C@H](Cn1c(=O)n(C(C)(C)C(N)=O)c(=O)c2c(C)c(-n3nccn3)sc21)OC1CCOCC1 [Compound I-031]	
								0.4 (≈ 0.634 µM)	0.4 (≈ 0.634 µM)	≥ 0.08	0.08 (≈ 0.127 µM)	0.4 (≈ 0.634 µM)	> 50	0.4 (≈ 0.634 µM)	≥ 50	COCCOc1ccc(F)cc1[C@H](Cn1c(=O)n(C(C)(C)C(=O)NC(C)C)c(=O)c2c(C)c(-n3nccn3)sc21)OC(C)C [Compound I-068]	
								0.4 (≈ 0.684 µM)	0.08 (≈ 0.137 µM)	0.08 (≈ 0.137 µM)	0.08 (≈ 0.137 µM)	0.24 (≈ 0.41 µM)	30 (≈ 51.3 µM)	0.24 (≈ 0.41 µM)	26 (≈ 44.5 µM)	COc1ccc(F)cc1[C@H](Cn1c(=O)n(C(C)C(=O)N2CCCC2)c(=O)c2c(C)c(-n3nccn3)sc21)OC(C)C (some centres unmarked) [Compound I-056]	
50 (≈ 89.2 µM)	> 50	> 50	2 (≈ 3.57 µM)	50 (≈ 89.2 µM)	> 50	> 50	> 50									COc1ccc(F)cc1[C@H](Cn1c(=O)n(C(C)(C)C(=O)NC(C)C)c(=O)c2c(C)c(CO)sc21)OCCC#N [Compound I-325]	
								0.4 (≈ 0.638 µM)	0.4 (≈ 0.638 µM)	0.4 (≈ 0.638 µM)	0.08 (≈ 0.128 µM)	2 (≈ 3.19 µM)	> 50	0.4 (≈ 0.638 µM)	> 10	COc1ccc(F)cc1[C@H](Cn1c(=O)n(C(C)(C)C(=O)N2CCCCC2)c(=O)c2c(C)c(-n3nccn3)sc21)OCC(C)C [Compound I-027]	
